The supplement of paper PMC10307832

How the values were obtained:
Experiment in all cases: relative viability (nuclei count vs DMSO), 5 days (fraction); higher = more cells survive
[1] = compound: CCN1C(=O)C2=CC(=C(N=C2N(C1=O)C3CC3)N)C(=O)N + CC(=O)Nc1cccc(-n2c(=O)n(C3CC3)c(=O)c3c(Nc4ccc(I)cc4F)n(C)c(=O)c(C)c32)c1 [Trametinib] (partner 0.02 µM)
Outline: (§1)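 Relative viability equals treated-well nuclei counts divided by vehicle-well nuclei counts. Counts came from 4× images of lung cancer cell lines grown in 1536-well plates for 5 days after pin-tool dosing on the day after seeding. Dosing used one drug alone or a fixed anchor-drug dose plus five library-drug doses (not always all listed) in √10 steps, and values are medians of duplicate plates.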

[2] = compound: CCN1C(=O)C2=CC(=C(N=C2N(C1=O)C3CC3)N)C(=O)N + CC(=O)c1c(C)c2cnc(Nc3ccc(N4CCNCC4)cn3)nc2n(C2CCCC2)c1=O [Palbociclib] (partner 0.5 µM)
Outline: as §1

[3] = compound: CCN1C(=O)C2=CC(=C(N=C2N(C1=O)C3CC3)N)C(=O)N + CCNC(=O)c1noc(-c2cc(C(C)C)c(O)cc2O)c1-c1ccc(CN2CCOCC2)cc1 [Luminespib] (partner 0.01 µM)
Outline: as §1

[4] = compound: CCN1C(=O)C2=CC(=C(N=C2N(C1=O)C3CC3)N)C(=O)N + CS(=O)(=O)N1CCN(Cc2cc3nc(-c4cccc5[nH]ncc45)nc(N4CCOCC4)c3s2)CC1 [Pictilisib] (partner 1 µM)
Outline: as §1

[5] = compound: CCN1C(=O)C2=CC(=C(N=C2N(C1=O)C3CC3)N)C(=O)N + CS(=O)(=O)CCNCc1ccc(-c2ccc3ncnc(Nc4ccc(OCc5cccc(F)c5)c(Cl)c4)c3c2)o1 [Lapatinib] (partner 2 µM)
Outline: as §1

| Cell Line | relative viability ([1]; first compound 0.253 µM) | relative viability ([1]; first compound 0.8 µM) | relative viability ([1]; first compound 2.53 µM) | relative viability ([1]; first compound 8 µM) | relative viability ([2]; first compound 0.253 µM) | relative viability ([2]; first compound 0.8 µM) | relative viability ([2]; first compound 2.53 µM) | relative viability ([2]; first compound 8 µM) | relative viability ([3]; first compound 0.253 µM) | relative viability ([3]; first compound 0.8 µM) | relative viability ([3]; first compound 2.53 µM) | relative viability ([3]; first compound 8 µM) | relative viability ([4]; first compound 0.253 µM) | relative viability ([4]; first compound 0.8 µM) | relative viability ([4]; first compound 2.53 µM) | relative viability ([4]; first compound 8 µM) | relative viability ([5]; first compound 0.253 µM) | relative viability ([5]; first compound 0.8 µM) | relative viability ([5]; first compound 2.53 µM) | relative viability ([5]; first compound 8 µM) |
| --- | --- | --- | --- | --- | --- | --- | --- | --- | --- | --- | --- | --- | --- | --- | --- | --- | --- | --- | --- | --- |
| 201T | 0.744 | 0.702 | 0.686 | 0.724 | 0.392 | 0.348 | 0.38 | 0.369 | 1.06 | 1.04 | 1.02 | 1.08 | 0.688 | 0.621 | 0.722 | 0.635 | 1.03 | 0.949 | 0.967 | 0.98 |
| A549 | – | – | – | – | – | – | – | – | – | – | – | – | 0.557 | 0.553 | 0.41 | 0.592 | 0.981 | 0.914 | 0.94 | 1.1 |
| A-427 | 0.827 | 0.7 | 0.7 | 0.767 | 0.497 | 0.522 | 0.486 | 0.535 | 1.13 | 1.26 | 1.24 | 1.13 | 0.724 | 0.578 | 0.645 | 0.727 | 1.06 | 0.963 | 1.05 | 1.01 |
| ABC-1 | – | – | – | – | 0.819 | – | 0.709 | 0.799 | 0.869 | 0.4 | 0.639 | 0.518 | 0.761 | 0.667 | 0.82 | 0.699 | 1.08 | 1.4 | 0.969 | 1.29 |
| BEN | 0.915 | 0.937 | 1.11 | 1.05 | 0.448 | 0.478 | 0.411 | 0.456 | 0.469 | 0.427 | 0.377 | 0.351 | 0.539 | 0.522 | 0.62 | 0.519 | 0.776 | 0.638 | 0.827 | 0.697 |
| CAL-12T | 0.42 | 0.354 | 0.386 | 0.328 | 0.452 | 0.448 | 0.475 | 0.418 | 0.294 | 0.792 | 0.193 | 0.436 | 0.431 | – | 0.437 | 0.541 | 0.528 | – | 0.716 | 0.859 |
| COR-L23 | 0.581 | 0.584 | 0.591 | 0.592 | 0.355 | 0.334 | 0.322 | 0.266 | 0.697 | 0.653 | 0.657 | 0.765 | 0.814 | 0.751 | 0.729 | 0.947 | 0.927 | 1.03 | 0.745 | 1.04 |
| COR-L 105 | 0.478 | 0.428 | 0.378 | 0.47 | 0.377 | 0.431 | 0.397 | 0.366 | 0.807 | 0.737 | 0.623 | 0.641 | 0.453 | 0.366 | 0.412 | 0.369 | 0.308 | 0.339 | 0.424 | 0.398 |
| ChaGo-K-1 | 0.922 | 0.951 | 0.861 | 0.875 | 0.898 | 0.97 | 0.897 | 0.99 | 0.541 | 0.508 | 0.636 | 0.53 | 0.916 | 0.563 | 0.91 | 0.766 | – | – | – | – |
| EKVX | 0.378 | 0.359 | 0.372 | 0.371 | 0.63 | 0.471 | 0.401 | 0.348 | 0.94 | 0.952 | 0.772 | 0.722 | 0.439 | 0.411 | 0.388 | 0.438 | 0.23 | 0.25 | 0.222 | 0.196 |
| EMC-BAC-2 | 0.871 | – | 0.766 | 0.9 | 0.543 | – | 0.47 | 0.468 | 1.29 | 1.08 | 1.03 | 1.19 | 0.642 | 0.536 | 0.456 | 0.584 | 0.937 | 0.849 | 0.859 | 0.888 |
| EPLC-272H | 0.261 | 0.239 | 0.327 | 0.298 | 0.309 | 0.358 | 0.331 | 0.358 | 0.253 | 0.227 | 0.465 | 0.445 | 0.296 | 0.288 | 0.389 | 0.333 | 0.834 | 0.867 | 0.932 | 1.13 |
| H3255 | 0.587 | 0.578 | 0.567 | 0.636 | 0.321 | 0.335 | 0.327 | 0.279 | 0.834 | 0.773 | 0.883 | 0.932 | 0.509 | 0.47 | 0.504 | 0.513 | 0.246 | 0.216 | 0.192 | 0.258 |
| HARA | 0.513 | 0.914 | 0.56 | 0.545 | 0.265 | 0.32 | 0.195 | 0.229 | 0.706 | 0.671 | 0.843 | 0.929 | 0.403 | 0.36 | 0.379 | 0.486 | 0.809 | 0.688 | 0.839 | 0.69 |
| HCC-15 | 0.412 | 0.382 | 0.369 | 0.429 | 0.764 | 0.731 | 0.675 | 0.712 | 0.231 | 0.7 | 0.395 | 0.452 | 0.699 | 0.79 | 0.793 | 0.801 | 0.816 | 0.903 | 0.782 | 0.859 |
| HCC-44 | 1.18 | 0.975 | 1.06 | 1.04 | 0.998 | 0.912 | 0.972 | 1 | 0.934 | 0.905 | 1.17 | 1.04 | 0.599 | 0.6 | 0.564 | 0.641 | 0.927 | 1.01 | 1.03 | 0.986 |
| HCC-78 | 0.706 | 0.733 | 0.812 | 0.788 | 0.472 | 0.463 | 0.509 | 0.449 | – | – | – | – | 0.223 | 0.173 | 0.201 | 0.205 | 0.581 | 0.626 | 0.937 | 0.719 |
